Patent US4406902A, “Dipeptidase inhibitors” (Merck & Co., Inc., priority 1981, dated 1983)
pKi: −log10 of the molar value.

Tests used:
[1] = target: T1, renal dipeptidase (E.C.3.4.13.11) (Sus scrofa, UniProt P22412); assay: in vitro screen: inhibition of hydrolysis of glycyldehydrophenylalanine (GDP) by solubilized dipeptidase from hog kidneys; assay type: biochemical; conditions: GDP 0.05 mM; pH 7.1; 37° C.; hog kidney dipeptidase; read-out: inhibitor binding constant, Ki (ki)
T1 construct: solubilized preparation of dipeptidase isolated from hog kidneys; from tissue; host or cells: hog kidney (solubilized, lyophilized enzyme preparation)
T1 sequence (P22412 17-409): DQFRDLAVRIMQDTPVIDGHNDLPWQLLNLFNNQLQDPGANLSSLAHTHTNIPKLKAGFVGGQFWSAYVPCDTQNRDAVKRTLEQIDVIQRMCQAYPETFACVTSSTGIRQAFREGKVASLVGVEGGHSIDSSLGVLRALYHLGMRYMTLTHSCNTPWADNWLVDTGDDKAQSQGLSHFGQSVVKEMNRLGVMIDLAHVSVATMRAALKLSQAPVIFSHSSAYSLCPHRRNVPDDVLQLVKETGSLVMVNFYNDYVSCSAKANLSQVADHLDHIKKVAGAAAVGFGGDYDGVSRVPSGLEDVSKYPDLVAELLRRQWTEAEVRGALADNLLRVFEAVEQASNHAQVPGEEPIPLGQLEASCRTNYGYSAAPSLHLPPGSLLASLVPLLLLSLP
Procedure: This measured the ability of compounds to inhibit hydrolysis of glycyldehydrophenylalanine (GDP) by a solubilized preparation of dipeptidase isolated from hog kidneys. The procedure is as follows: to a 1 ml. system containing 50 mM "MOPS" (3-(N-morpholino)propanesulfonic acid) buffer, pH 7.1, is added 5 μg of lyophilized enzyme, and the test compound at a final concentration of 0.1 mM. After a five minute incubation at 37° C., GDP is added to a final concentration of 0.05 mM. […] Inhibition of the enzyme is gauged by comparison to a standard run containing no inhibitor and is expressed as the inhibitor binding constant, Ki.

[2] = disposition studies with thienamycin, its natural analogs and semi-synthetic derivatives (urinary recovery, plasma half-life); assay type: in vivo; conditions: mouse, rat, dog, chimpanzee, Rhesus monkey
Procedure: Chem., 205 65 (1932); see also Greenstein, J. P., Advances in Enzymology, Vol. VIII, Wiley-Interscience, (1948), New York, and Campbell, B. J.; Lin, Y-C., Davis, R. V. and Ballew, E., "The Purification and Properties of Particulate Renal Dipeptidase", Biochim. Biophys. Acta., 118, 371 (1966).
Urinary recovery of thienamycin was measured in all cases with the use of a cylinder or disc diffusion assay, conducted in a manner described in U.S. Pat. No. 3,950,357. This bioassay, with Staphylococcus aureus ATCC 6538 as the test organism, has a useful response range from 0.04 μg/ml to 3.0 μg/ml.

[3] = target: T2, renal dipeptidase (Sus scrofa, UniProt P22412); assay: hydrolysis of GDP and thienamycin as substrates by renal dipeptidase; assay type: biochemical, hog; conditions: GDP compared with thienamycin
T2 construct: GPI-anchored homodimer
T2 sequence (P22412 17-384): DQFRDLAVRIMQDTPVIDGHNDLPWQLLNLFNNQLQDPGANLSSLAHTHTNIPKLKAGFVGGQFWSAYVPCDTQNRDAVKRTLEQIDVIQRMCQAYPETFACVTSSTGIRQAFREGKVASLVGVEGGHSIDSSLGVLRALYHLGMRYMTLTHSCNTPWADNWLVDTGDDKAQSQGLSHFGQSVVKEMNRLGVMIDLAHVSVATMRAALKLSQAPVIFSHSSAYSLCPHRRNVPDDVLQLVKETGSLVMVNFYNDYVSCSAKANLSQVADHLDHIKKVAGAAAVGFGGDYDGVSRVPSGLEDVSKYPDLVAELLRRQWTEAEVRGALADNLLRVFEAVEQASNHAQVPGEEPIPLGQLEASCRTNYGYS

| pKi [1] | SMILES | other results |
| --- | --- | --- |
| 7.40 | CC1(C)CC1C(=O)N/C(=C\CCCCSc1ncccc1C(=O)O)C(=O)O (racemic) [Example 3, Racemic Z-7-(3-carboxy-2-pyridylthio)-2-(2,2-dimethylcyclopropanecarboxamido)-2-heptenoic acid] | – |
| 7.70 | CC1(C)CC1C(=O)N/C(=C\CCCCSc1ncccc1O)C(=O)O (single isomer, unassigned; (+)) [Example 2, (+)-Z-2-(2,2-Dimethylcyclopropanecarboxamido)-7-(3-hydroxy-2-pyridylthio)-2-heptenoic acid] | – |
| – | C[C@@H](O)[C@H]1C(=O)N2C(C(=O)O)=C(SCCN)C[C@H]12 [thienamycin] | plasma half-life [2]: short plasma half-lives; urinary recovery [2]: low urinary recovery |
| 6.60 | CC1(C)CC1C(=O)N/C(=C\CCCCSc1ccc(C(=O)O)cn1)C(=O)O (racemic) [Example 4, Racemic Z-7-(5-carboxy-2-pyridylthio)-2-(2,2-dimethylcyclopropanecarboxamido)-2-heptenoic acid] | – |
| – | NCC(=O)NC(=Cc1ccccc1)C(=O)O [GDP, glycyldehydrophenylalanine] | maximal velocity of hydrolysis by renal dipeptidase [3]: much higher maximal velocity of hydrolysis |
